Like-named read-outs stand apart in the source and are kept apart here.
Key:
[1] = test system: Pfa1 cells; test: Inhibition of non-apoptotic cell death after tamoxifen-induced GPx4 knockout in a recombinant cell line (Example B.4); format: cell-based; conditions: Mus musculus, read-out: Pfa1/TAM IC50
In short: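 Immortalised murine fibroblasts with tamoxifen-inducible CreERT2 for ablation of both GPx4 copies (Pfa1 cells) received tamoxifen on day 0 together with test compound. Cell survival was measured by AlamarBlue after 72 hours.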

[2] = Cellular toxicity, same assay as Example B.4 without TAM (Example B.5); format: cell-based; conditions: mouse; Pfa1 cells without TAM; read-out: TC50 (the source's name)
Description: Cellular Toxicity of Compounds of the Invention
An estimate of the toxicity for compounds of the invention was obtained by using the same assay as described in Example B.4, but without the addition of TAM. […] Such TC50 values obtained for certain compounds disclosed herein, together with an approximate therapeutic window (estimated by dividing each TC50 by the corresponding IC50 determined from example B.4) are shown in Table 3.

[3] = test system: human neuroblastoma cell line SH-SY5Y; test: Inhibition of BSO-induced non-apoptotic cell death (Example B.1); format: cell-based; conditions: SH-SY5Y cells, 72 hours
Description: Inhibition of BSO-Induced Non-Apoptotic Cell Death by Compounds Disclosed Herein
L-Buthionine sulfoximine (BSO) is a well-known glutathione (GSH) depletory, which inhibits gamma-glutamyl-cysteine-synthetase, the enzyme catalyzing the rate-limiting step in GSH biosynthesis. The human neuroblastoma cell line SH-SY5Y is sensitive to BSO-induced intracellular glutathione depletion, which causes high levels of reactive oxygen species (ROS) and cellular stress mimicking cellular conditions following ischemia (cf., e.g., Yamada et al., Neurochem. Int. 59:1003-9 (2011)).
Compounds disclosed herein were evaluated for their ability to promote cell survival upon administration of a lethal dose of BSO to cell-culture medium. Briefly, SH-SY5Y cells (ATCC® CRL-2266™) were propagated in DMEM supplemented with 10% FBS/1% Penicillin-Streptomycin, and then seeded onto 96-well plates at a concentration of 750 cells/well in 100 μL of media, to which BSO (Sigma Aldrich) was added (to a final concentration of 50 μM) together with increasing concentrations of the compound to be tested, and the plates incubated at 37° C./5% CO2 for 72 hours. Compound dilutions (0.5 pM to 100 μM) were prepared from 10 mM stocks dissolved in DMSO and diluted in media. Cells treated with BSO alone were used as negative control and alpha-Tocopherol (Sigma Aldrich) was used as positive control. Compound concentrations were tested in triplicate. After incubation, cell survival was detected using the live/dead cell assay AquaBluer™ (MultiTarget Pharmaceuticals) and quantified using a fluorescence plate reader (excitation filter: 530-560 nm/emission filter: 590 nm) (SpectraMax M4; Molecular Devices). Fluorescence data so obtained was normalised to the percentage of surviving cells and IC50 values calculated using the GraphPad Prism (GraphPad Software, Inc) software package.

[4] = test system: mouse hippocampal cell line (Ht22); test: Inhibition of glutamate-induced non-apoptotic cell death (Example B.2); format: cell-based; conditions: HT-22, Ht22 cells
In short: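 Ht22 cells (2,000/well, DMEM/10% FBS) seeded together with 5 mM glutamate and compound (0.5 pM to 100 μM, triplicate), incubated 72 h at 37 °C/5% CO2. Cell survival then quantified; glutamate alone as negative control, alpha-tocopherol as positive control.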

[5] = test system: SH-SY5Y cells; test: TNF-alpha-induced apoptosis, specificity for non-apoptotic cell death (Example B.3); format: cell-based, human; conditions: compound 1 μM, TNF-alpha 10 ng/mL, FIG. 1
Description: SH-SY5Y cells were propagated and seeded in 96-well plates, together with compound N-1, N-2, N-10 of Table 1-N (FIG. 1(a)), compound O/S-6 or O/S-3 of Table 1-O/S (FIG. 1(b)), or compound C-12, C-91, or C-205 of Table 1-C (FIG. 1(c)) (each 1 μM) and TNF-alpha was added (final concentration: 10 ng/mL) to induce apoptosis. The apoptosis and pan-caspase inhibitor z-vad (final concentration: 50 μM) and the necroptosis inhibitor Necrostatin-1 (Nec-1; final concentration: 5 μM) were used for comparison. Control wells were established with vehicle only (DMSO), with and without treatment with TNF-alpha to induce apoptosis. Cells were incubated, and cell survival was detected and quantified. Percentage cell survival after TNF-alpha-induced apoptosis is shown (error bars indicate standard deviation (SD)).
Briefly, SH-SY5Y cells were propagated and seeded in 96-well plates, together with the compound to be tested (1 μM), generally as described in Example B.1, except they were seeded at 1,000 cell/well and instead of BSO, TNF-alpha (Invitrogen) was added to a final concentration of 10 ng/mL to induce apoptosis. The apoptosis and pan-caspase inhibitor Z-VAD-fmk (Enzo Life Science; final concentration 50 μM) and the necroptosis inhibitor Necrostatin-1 (Nec-1; Enzo Life Science; final concentration 5 μM) were used for comparison. Control wells were established with vehicle only (DMSO), with and without treatment with TNF-alpha to induce apoptosis. Cells were incubated, and cell survival was detected and quantified as described in Example B.1.

[6] = 50 μM BSO, read-out: SH-SY5Y/BSO IC50
[7] = glutamate-induced cell death, read-out: Ht22/GLU
[8] = BSO 50 μM, cell survival (AquaBluer), read-out: SH-SY5Y/BSO (Example B.1) IC50
[9] = glutamate 5 mM, 72 hours, cell survival, read-out: Ht22/GLU (Example B.2) IC50

Compound | IC50 [1] | CC50 [2] | IC50 [3, 6] | IC50 [4, 7] | IC50 [3, 8] | IC50 [4, 9] | Percentage cell survival after TNF-alpha-induced apoptosis [5]
Clc1cccc(CNC2=Nc3ccccc3NC23CCOCC3)c1 [O/S-2] | < 500 nM | 20000 to 50000 nM | < 200 nM | < 1000 nM |  |  | 
Clc1ccc(CNC2=Nc3ccccc3NC23CCOCC3)cc1 [O/S-3] | < 500 nM | 20000 to 50000 nM | < 500 nM | < 100 nM | ~100 nM | ~100 nM | Non-inhibition of apoptotic cell-death
Fc1ccc(CNC2=Nc3ccccc3NC23CCOCC3)cc1 [O/S-6] | < 1000 nM | 50000 to 100000 nM | < 500 nM | < 500 nM | 68.3 nM | 218 nM | 
Clc1cccc(CNC2=Nc3cc(Cl)c(Cl)cc3NC23CCOCC3)c1 [O/S-94] | < 50 nM | 10000 to 20000 nM | < 50 nM | < 500 nM |  |  | 
Clc1cccc(CNC2=Nc3ccccc3NC23CCSCC3)c1 [O/S-168] | < 200 nM | 20000 to 50000 nM | < 100 nM | < 500 nM |  |  | 
c1ccc(CNC2=Nc3ccccc3NC23CCOCC3)cc1 [O/S-337] | < 5000 nM | 50000 to 100000 nM | < 500 nM | < 5000 nM |  |  | 
c1ccc(CNC2=Nc3ccccc3NC23CCSCC3)cc1 [O/S-338] | < 1000 nM | 50000 to 100000 nM | < 500 nM | < 5000 nM |  |  | 
Clc1cc2c(cc1Cl)NC1(CCOCC1)C(NCc1ccccc1)=N2 [O/S-339] | < 50 nM | 20000 to 50000 nM | < 20 nM | < 200 nM |  |  | 
Cc1cc2c(cc1C)NC1(CCOCC1)C(NCc1ccccc1)=N2 [O/S-340] | < 500 nM | 20000 to 50000 nM | < 200 nM | < 500 nM |  |  | 
Cc1cccc(CNC2=Nc3cc(Cl)c(Cl)cc3NC23CCOCC3)c1 [O/S-342] | < 50 nM | 20000 to 50000 nM | < 100 nM | < 500 nM |  |  | 
Clc1ccc(CNC2=Nc3ccccc3NC23CCOCC3)cc1Cl [O/S-345] | < 100 nM | 20000 to 50000 nM | < 100 nM | < 500 nM |  |  | 
O=S1(=O)CCC2(CC1)Nc1ccccc1N=C2NCc1ccccc1 [O/S-363] | < 2000 nM | 10000 to 20000 nM | < 2000 nM | < 5000 nM |  |  | 
FC1(F)Oc2cc3c(cc2O1)NC1(CCOCC1)C(NCc1ccccc1)=N3 [O/S-366] | < 100 nM | 20000 to 50000 nM | < 50 nM | < 100 nM |  |  | 
CC(NC1=Nc2ccccc2NC12CCSCC2)c1ccccc1 (stereo not drawn) [O/S-367] | < 1000 nM | 20000 to 50000 nM | < 200 nM | < 500 nM |  |  | 
c1ccc(CCNC2=Nc3ccccc3NC23CCSCC3)cc1 [O/S-368] | < 5000 nM | 20000 to 50000 nM | < 2000 nM | < 2000 nM |  |  | 
Cc1cc2c(cc1C)NC1(CCSCC1)C(NCc1ccccc1)=N2 [O/S-369] | < 100 nM | 10000 to 20000 nM | < 50 nM | < 200 nM |  |  | 
